Test results reported in patent publication US20220023281A1, “HETEROCYCLIC SPIRO-COMPOUNDS AS AM2 RECEPTOR INHIBITORS” (THE UNIVERSITY OF SHEFFIELD, priority 2018, published 2022).

Biological target: T1, AM2 receptor-expressing cells (1321N1 cells transfected with CALCRL+RAMP3) (Homo sapiens, UniProt O60896+Q16602)
T1 construct: host or cells: 1321N1 cells
Assay: AM2 receptor inhibition, LANCE cAMP agonist-antagonist competition assay (AM2 D2 protocol)
Assay type: cell-based
Details: inhibition of AM induced cAMP in 1321N1 cells expressing CALCRL+RAMP3; read-out: AM2 D2 protocol: pIC50 (converted)
Experimental: Compounds were assessed for their ability to inhibit ligand-induced elevations of cAMP, using the Perkin Elmer LANCE cAMP assay using commercially-available cells expressing a specific receptor of interest using the following general procedure:
Compounds were prepared in dimethyl sulfoxide (DMSO—99.9% pure) (Sigma Aldrich, Cat #: D4540) added to powder stocks to produce a 20 mM solution (100% DMSO) that was sonicated at 37° C. for 10 minutes to fully dissolve the compounds. The 20 mM stocks were diluted further in DMSO to produce a 2 mM solution that was sonicated at 37° C. for 10 minutes. 2 mM stocks were dissolved in assay/stimulation buffer to produce a 400 μM solution that was sonicated at 37° C. for 10 minutes for all cAMP assays. All stocks were stored at −20° C. Then serial dilution (Dilution factor: 10) was performed to achieve the desire experimental concentrations.
Competition assays were performed according to the manufactures instructions using LANCE® TR-FRET cAMP assay kit (Perkin Elmer, Cat #: AD0264). Serial dilutions (3 μl/well) of the molecules were plated in a 384-well OptiPlate (Perkin Elmer, Cat #: 6007299) in duplicates. Appropriate controls (100% stimulation: Forskolin and 0% stimulation: Vehicle control) (6 μl/well) were included in each plate for data normalization. Following the compound addition, 6 μl of G-protein coupled receptor overexpressing cells/Alexa Fluor antibody solution (1:100 dilution) was added in each well at a desired density of 2500 cells/well. The overexpressing cell lines were purchased from DiscoveRx, Birmingham, UK. After spinning the plate at 1000 rpm for 1 minute and vortexing briefly, the cells were pre-incubated with the compounds for 30 minutes at room temperature (covered). Then 3 μl of the equivalent peptide ligand (EC50 dose) was added to all the wells except vehicle and forskolin controls. The plate were then spun down at 1000 rpm for 1 minute and once finished they were vortexed briefly and covered. Cells were stimulated in the presence of the ligands for 15 minutes at room temperature. After stimulation 12 μl of detection mix (Europium-Chelate streptavidin/biotinylated cAMP tracer solution) was added to all wells and incubated for 60 minutes at room temperature. The plate was then read on the Enspire multimode Plate reader (Perkin Elmer), at; 320/340 nm excitation and 615/665 nm emission was recorded.
Assay/Stimulation Buffer (30 mL)—pH 7.4 • 28 mL Hank's Balanced salt solution (+MgCl2, +CaCl2))—(Thermo Fisher Cat #:14170112) • 150 μl HEPES (1M)—(Thermo Fisher Cat #:15630080) • 400 μl Stabilizer (DTPA) Purified BSA (7.5%)—(Perkin Elmer, Cat #: CR84-100) • 60 μl IBMX (250 mM)—(Sigma Aldrich, Cat #: 15879)
The ability of a compound to inhibit the AM induced cAMP activation in AM2 receptor-expressing cells (1321N1 cells transfected with CALCRL+RAMP3, sourced from DiscoverX catalogue number 95-0169C6) was assessed using the protocol above.

T1 sequence (Q16602 23-461): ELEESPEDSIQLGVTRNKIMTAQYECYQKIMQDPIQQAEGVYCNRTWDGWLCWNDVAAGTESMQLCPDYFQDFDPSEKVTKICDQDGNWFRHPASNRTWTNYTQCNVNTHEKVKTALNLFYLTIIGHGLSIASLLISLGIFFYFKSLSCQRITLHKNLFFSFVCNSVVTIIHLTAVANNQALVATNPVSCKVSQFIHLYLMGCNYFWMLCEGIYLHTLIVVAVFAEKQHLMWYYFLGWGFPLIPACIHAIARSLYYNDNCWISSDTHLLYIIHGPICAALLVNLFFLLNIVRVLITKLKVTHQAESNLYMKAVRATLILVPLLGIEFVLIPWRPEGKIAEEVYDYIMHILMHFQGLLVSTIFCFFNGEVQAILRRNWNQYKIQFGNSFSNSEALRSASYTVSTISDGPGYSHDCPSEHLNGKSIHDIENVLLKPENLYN
T1 sequence (O60896 24-148): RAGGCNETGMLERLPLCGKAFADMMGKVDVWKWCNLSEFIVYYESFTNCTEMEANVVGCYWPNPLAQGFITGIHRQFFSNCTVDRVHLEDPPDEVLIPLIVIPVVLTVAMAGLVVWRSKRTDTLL

Structure (SMILES) | IC50 [nM]
CC(C)(C)C(=O)N(CC(=O)Nc1ccc2c(c1)C[C@@]1(C2)C(=O)Nc2ncccc21)[C@@H]1CCCNC1 [Example 3, N-(2-Oxo-2-(((R)-2′-oxo-1,1′,2′,3-tetrahydrospiro[indene-2,3′-pyrrolo[2,3-b]pyridin]-5-yl)amino)ethyl)-N—((R)-piperidin-3-yl)pivalamide] | 741
CCC1(C(=O)N(CC(=O)Nc2ccc3c(c2)C[C@@]2(C3)C(=O)Nc3ncccc32)[C@H]2CCCNC2)CCOCC1 [Example 14, 4-Ethyl-N-(2-oxo-2-(((R)-2′-oxo-1,1′,2′,3-tetrahydrospiro[indene-2,3′-pyrrolo[2,3-b]pyridin]-5-yl)amino)ethyl)-N—((S)-piperidin-3-yl)tetrahydro-2H-pyran-4-carboxamide] | 288
CC(C)(C)C(=O)N(CC(=O)Nc1ccc2c(c1)CC1(C2)C(=O)Nc2ncccc21)[C@H]1CCNC1 (stereo partly drawn) [Example 24, N-(2-Oxo-2-((2′-oxo-1,1′,2′,3-tetrahydrospiro[indene-2,3′-pyrrolo[2,3-b]pyridin]-5-yl)amino)ethyl)-N—((S)-pyrrolidin-3-yl)pivalamide] | 132
O=C(CN(C(=O)N1CCCC1)[C@H]1CCCNC1)Nc1ccc2c(c1)C[C@@]1(C2)C(=O)Nc2ncccc21 [Example 22, N-(2-Oxo-2-(((R)-2′-oxo-1,1′,2′,3-tetrahydrospiro[indene-2,3′-pyrrolo [2,3-b]pyridin]-5-yl)amino)ethyl)-N—((S)-piperidin-3-yl)pyrrolidine-1-carboxamide] | 245
CC(C)(C)C(=O)N(CC(=O)Nc1ccc2c(c1)C[C@@]1(C2)C(=O)Nc2ncccc21)C1CCC2CCC1N2 (single isomer, unassigned) [Example 31A] | 316
C[C@@H]1CC[C@H](N(CC(=O)Nc2ccc3c(c2)C[C@@]2(C3)C(=O)Nc3ncccc32)C(=O)C(C)(C)C)CN1 (relative stereo) [Example 29, N-((3S*,6R*)-6-Methylpiperidin-3-yl)-N-(2-oxo-2-(((R)-2′-oxo-1,1′,2′,3-tetrahydrospiro[indene-2,3′-pyrrolo[2,3-b]pyridin]-5-yl)amino)ethyl)pivalamide] | 178

Continued, values first:

IC50 [nM] | Structure (SMILES)
145 | CC1(C(=O)N(CC(=O)Nc2ccc3c(c2)C[C@@]2(C3)C(=O)Nc3ncccc32)[C@H]2CCCNC2)CCC1 [Example 8, 1-Methyl-N-(2-oxo-2-(((R)-2′-oxo-1,1′,2′,3-tetrahydrospiro[indene-2,3′-pyrrolo[2,3-b]pyridin]-5-yl)amino)ethyl)-N—((S)-piperidin-3-yl)cyclobutanecarboxamide]
112 | CC(=O)N1CCC(C)(C(=O)N(CC(=O)Nc2ccc3c(c2)C[C@@]2(C3)C(=O)Nc3ncccc32)[C@H]2CCCNC2)CC1 [Example 16, 1-Acetyl-4-methyl-N-(2-oxo-2-(((R)-2′-oxo-1,1′,2′,3-tetrahydrospiro[indene-2,3′-pyrrolo[2,3-b]pyridin]-5-yl)amino)ethyl)-N—((S)-piperidin-3-yl)piperidine-4-carboxamide]
67.6 | CC1(C(=O)N(CC(=O)Nc2ccc3c(c2)C[C@@]2(C3)C(=O)Nc3ncccc32)[C@H]2CCCNC2)CCN(C(=O)CN2CCNCC2)CC1 [Example 18, 4-Methyl-N-(2-oxo-2-(((R)-2′-oxo-1,1′,2′,3-tetrahydrospiro[indene-2,3′-pyrrolo[2,3-b]pyridin]-5-yl)amino)ethyl)-1-(2-(piperazin-1-yl)acetyl)-N—((S)-piperidin-3-yl)piperidine-4-carboxamide]
18.6 | CC1(C(=O)N(CC(=O)Nc2ccc3c(c2)C[C@@]2(C3)C(=O)Nc3ncccc32)[C@H]2CCCNC2)CCN(C(=O)c2ccccn2)CC1 [Example 17, 4-Methyl-N-(2-oxo-2-(((R)-2′-oxo-1,1′,2′,3-tetrahydrospiro[indene-2,3′-pyrrolo[2,3-b]pyridin]-5-yl)amino)ethyl)-1-picolinoyl-N—((S)-piperidin-3-yl)piperidine-4-carboxamide]
56.2 | CNC(=O)N1CCC(C)(C(=O)N(CC(=O)Nc2ccc3c(c2)C[C@@]2(C3)C(=O)Nc3ncccc32)[C@H]2CCCNC2)CC1 [Example 20, N1,4-Dimethyl-N4-[2-oxo-2-[[(3R)-2-oxospiro[1H-pyrrolo[2,3-b]pyridine-3,2′-indane]-5′-yl]amino]ethyl]-N4-[(3S)-3-piperidyl]piperidine-1,4-dicarboxamide]
